Test results published in patent US11364277B2, “Treatment of ascites” (BioVie Inc., priority 2015, dated 2022).
Where “and” joins values, the source holds several entries; their conditions need not be identical. Equal entries are not always repeated. Where a SMILES comes first, the peptide text is derived from it. Bridges are numbered along the chain shown (N, C = ends).

Key:
[1] = system: subjects with ascites due to liver cirrhosis, not type 1 or type 2 HRS; type: in vivo, human
Description: 15 subjects that are to be confirmed to have ascites, but not type 1 or type 2 HRS, due to liver cirrhosis will be administered continuous low dose (escalating from 2.0 to 3.0 mg per 24 hours) terlipressin via ambulatory infusion pump. […] Accordingly, continuous infusion pump (CIP) terlipressin represents a potentially life-saving solution for these seriously ill patients who are still ambulatory (have not yet been administered to the hospital for treatment) and have not developed type 1 or type 2 HRS.

[2] = human, in vivo; cited from earlier work
[3] = system: HRS patients with diuretic intractable or refractory ascites; assay: Example 2: six HRS patients with ascites treated with continuous infusion terlipressin, evaluated before, during and after treatment; type: in vivo, human; settings: for Body Weight After / Plasma Sodium After / Serum Creatinine After / Serum Urea After: after treatment;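 on Serum Urea After: serum urea in mmol/L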;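 on Serum Urea During: serum urea in mmol/L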
Description: Six FIRS patients treated with continuous infusion terlipressin were evaluated for improvement in […]. All six patients had diuretic intractable or refractory ascites (5 of 6 with hyponatremia). The patients were evaluated for the following parameters before, during and after treatment: number of paracentesis procedures per month, volume of ascites removed, weight, serum sodium, urinary sodium excretion, serum creatinine, serum urea, and whether diuretics were included in the treatment regimen.

[4] = human, in vivo, cited from earlier work
[5] = Average (excludes patients #2, #3, #5)
[6] = Patient 1, max. dose 12 mg/day, 63 days
[7] = Patient 1, max. dose 12 mg/day, 63 days, diuretics during: A
[8] = Patient 2, max. dose 12 mg/day, 195 days
[9] = Patient 2, max. dose 12 mg/day, 195 days, diuretics during: None
[10] = Patient 3, max. dose 3 mg/day, 10 days
[11] = Patient 3, max. dose 3 mg/day, 10 days, diuretics during: None
[12] = Patient 4, max. dose 10 mg/day, 11 days
[13] = Patient 4, max. dose 10 mg/day, 11 days, diuretics during: None
[14] = Patient 5, max. dose 3 mg/day, 22 days
[15] = Patient 5, max. dose 3 mg/day, 22 days, diuretics during: None
[16] = Patient 6, max. dose 2 mg/day, 12 days
[17] = Patient 6, max. dose 2 mg/day, 12 days, diuretics during: F + A

NCCCC[C@H](NC(=O)[C@@H]1CCCN1C(=O)[C@@H]1CSSC[C@H](NC(=O)CNC(=O)CNC(=O)CN)C(=O)N[C@@H](Cc2ccc(O)cc2)C(=O)N[C@@H](Cc2ccccc2)C(=O)N[C@@H](CCC(N)=O)C(=O)N[C@@H](CC(N)=O)C(=O)N1)C(=O)NCC(N)=O [terlipressin] (H-GGGCYFQNCPKG-NH2; disulfide 4-9)
severity of ascites and accumulation of ascites fluid ([1]; 2.0 to 3.0 mg per 24 hours escalating, 1 day to 28 days, expected): decrease the severity of ascites and the accumulation of ascites fluid | average amount of fluid withdrawn after beginning therapy ([1]; compared to prior to the start of treatment, expected): significantly less than prior to the start of treatment | number of paracentesis procedures required over a 28-day period ([1]; compared to the 28-day period prior to treatment inception, expected): reduce the number of paracentesis procedures | safety of continuous infusion pump terlipressin ([1]; human, in vivo): no serious side effects | half-life [2]: 26 min | Plasma Sodium % Change ([3]; Average): 5% | Plasma Sodium During ([3]; Average): 135 mEq/L | Serum Creatinine % Change ([3]; Average): −47% | Serum Creatinine During ([3]; Average): 127 µM | Serum Urea % Change ([3]; Average): −45% | Serum Urea During ([3]; Average): 15.1 mmol/L | Body Weight % Change ([3]; Average (excludes Patient #4)): −11% | Body Weight During ([3]; Average (excludes Patient #4)): 73 kg | Body Weight After ([3]; Average (excludes Patient #4)): 87 kg | Paracenteses/Month % Change ([3]; Average (excludes patient #1)): −32% | Volume Fluid Removed/Month % Change ([3]; Average (excludes patient #1)): −55% | Volume Fluid Removed/Month During ([3]; Average (excludes patient #1)): 14 L | Urinary Na over 24 hours % Change [3, 5]: 1632% | Urinary Na over 24 hours During [3, 5]: 127 mEq/24 hr | Plasma Sodium After ([3]; Average): 136 mEq/L | Serum Creatinine After ([3]; Average): 105 µM | Serum Urea After ([3]; Average): 10.4 mmol/L | Plasma Sodium % Change [3, 6]: −2% | Plasma Sodium During [3, 6]: 137 mEq/L | Serum Creatinine % Change [3, 6]: −24% | Serum Creatinine During [3, 6]: 189 µM | Serum Urea % Change [3, 6]: −72% | Serum Urea During [3, 6]: 8.8 mmol/L | Urinary Na over 24 hours % Change [3, 6]: 820% | Urinary Na over 24 hours During [3, 6]: 46 mEq/24 hr | Body Weight After [3, 6]: 74 kg | Body Weight % Change [3, 7]: −11% | Body Weight During [3, 7]: 74 kg | Paracenteses/Month % Change [3, 7]: −100% | Paracenteses/Month During [3, 7]: 0 /Month | Plasma Sodium % Change [3, 8]: 2% | Plasma Sodium During [3, 8]: 128 mEq/L | Serum Creatinine % Change [3, 8]: −46% | Serum Creatinine During [3, 8]: 208 µM | Serum Urea % Change [3, 8]: −37% | Serum Urea During [3, 8]: 23.2 mmol/L | Urinary Na over 24 hours During [3, 8]: 301 mEq/24 hr | Body Weight % Change [3, 9]: 11% | Body Weight During [3, 9]: 71 kg | Paracenteses/Month % Change [3, 9]: −25% | Paracenteses/Month During [3, 9]: 6 /Month | Volume Fluid Removed/Month % Change [3, 9]: −48% | Volume Fluid Removed/Month During [3, 9]: 42 L | Plasma Sodium % Change [3, 10]: 2% | Plasma Sodium During [3, 10]: 136 mEq/L | Serum Creatinine % Change [3, 10]: −50% | Serum Creatinine During [3, 10]: 116 µM | Serum Urea % Change [3, 10]: −46% | Serum Urea During [3, 10]: 9.1 mmol/L | Body Weight After [3, 10]: 128 kg | Plasma Sodium After [3, 10]: 140 mEq/L | Serum Creatinine After [3, 10]: 122 µM | Serum Urea After [3, 10]: 10.8 mmol/L | Body Weight % Change [3, 11]: −23% | Body Weight During [3, 11]: 99 kg | Paracenteses/Month % Change [3, 11]: −50% | Paracenteses/Month During [3, 11]: 2 /Month | Volume Fluid Removed/Month % Change [3, 11]: −65% | Volume Fluid Removed/Month During [3, 11]: 14 L | Plasma Sodium % Change [3, 12]: 15% | Plasma Sodium During [3, 12]: 141 mEq/L | Serum Creatinine % Change [3, 12]: −67% | Serum Creatinine During [3, 12]: 104 µM | Serum Urea % Change [3, 12]: −28% | Serum Urea During [3, 12]: 37.3 mmol/L | Urinary Na over 24 hours % Change [3, 12]: 1900% | Urinary Na over 24 hours During [3, 12]: 20 mEq/24 hr | Paracenteses/Month % Change [3, 13]: 50% | Paracenteses/Month During [3, 13]: 3 /Month | Volume Fluid Removed/Month % Change [3, 13]: −36% | Volume Fluid Removed/Month During [3, 13]: 9 L | Plasma Sodium % Change [3, 14]: −2% | Plasma Sodium During [3, 14]: 128 mEq/L | Serum Creatinine % Change [3, 14]: −19% | Serum Creatinine During [3, 14]: 55 µM | Serum Urea % Change [3, 14]: −17% | Serum Urea During [3, 14]: 5.3 mmol/L | Body Weight After [3, 14]: 77 kg | Serum Creatinine After [3, 14]: 55 µM | Serum Urea After [3, 14]: 10.5 mmol/L | Body Weight % Change [3, 15]: −10% | Body Weight During [3, 15]: 64 kg | Paracenteses/Month % Change [3, 15]: −33% | Paracenteses/Month During [3, 15]: 2 /Month | Volume Fluid Removed/Month % Change [3, 15]: −71% | Volume Fluid Removed/Month During [3, 15]: 6 L | Plasma Sodium % Change [3, 16]: 19% | Plasma Sodium During [3, 16]: 140 mEq/L | Serum Creatinine % Change [3, 16]: −54% | Serum Creatinine During [3, 16]: 90 µM | Serum Urea % Change [3, 16]: −68% | Serum Urea During [3, 16]: 6.6 mmol/L | Urinary Na over 24 hours % Change [3, 16]: 1869% | Urinary Na over 24 hours During [3, 16]: 315 mEq/24 hr | Body Weight After [3, 16]: 68 kg | Plasma Sodium After [3, 16]: 131 mEq/L | Serum Creatinine After [3, 16]: 137 µM | Serum Urea After [3, 16]: 10.0 mmol/L | Body Weight % Change [3, 17]: −14% | Body Weight During [3, 17]: 55 kg | Paracenteses/Month % Change [3, 17]: −100% | Paracenteses/Month During [3, 17]: 0 /Month | Volume Fluid Removed/Month % Change [3, 17]: −100% | Volume Fluid Removed/Month During [3, 17]: 0 L | overall average decrease of urea concentration in blood serum ([3]; all patients, during treatment): 45% | reduction of average monthly ascites fluid volume removed ([3]; during continuous infusion therapy vs prior to initiation): 55% | decrease of average body weight per patient ([3]; during therapy, proxy for ascitic fluid accumulation): 11% and 9 kg and ~19.8 lbs | improvement of ascites seen without diuretics ([3]; during treatment, number of patients): four of six patients | plasma sodium after the cessation of therapy ([3]; patient #6): remained normal | correction of severe hyponatremia ([3]; patients #4 and #6): corrected severe hyponatremia in two patients | average urinary sodium after starting therapy ([3]; three of six patients with data before and after starting continuous infusion, increased from 7): 127 mEq/24 h | average decrease in serum creatinine levels ([3]; treated group of patients): 47% | patients with side effects ([4]; iv): up to 40% | patients with severe side effects requiring discontinuation of treatment [4]: up to 10%
